Laboratory results taken from the NIST ThermoML archive (doi:10.1021/je700321s).

Assay: xn = mol fraction of the nth substance listed
Settings: Liquid, Vibrating tube method

CC(C)O [propan-2-ol] + O=C=O
Settings | mass density [kg/m3]
313.08 K, 10061 kPa, x2 = 0.7943 | 800.9
313.08 K, 10515 kPa, x2 = 0.7943 | 804
313.08 K, 11013 kPa, x2 = 0.7943 | 807.3
313.08 K, 11507 kPa, x2 = 0.7943 | 810.6
313.08 K, 11994 kPa, x2 = 0.7943 | 813.5
313.08 K, 12199 kPa, x2 = 0.7943 | 814.6
313.08 K, 12410 kPa, x2 = 0.7943 | 815.6
313.08 K, 12606 kPa, x2 = 0.7943 | 816.7
313.09 K, 2502 kPa, x2 = 0.139 | 781.7
313.09 K, 3002 kPa, x2 = 0.139 | 782.3
313.09 K, 3513 kPa, x2 = 0.139 | 782.9
313.09 K, 4008 kPa, x2 = 0.139 | 783.5
313.09 K, 4501 kPa, x2 = 0.139 | 784.1
313.09 K, 5001 kPa, x2 = 0.139 | 784.7
313.09 K, 5497 kPa, x2 = 0.139 | 785.3
313.09 K, 6023 kPa, x2 = 0.139 | 785.9
313.09 K, 6504 kPa, x2 = 0.139 | 786.5
313.09 K, 7026 kPa, x2 = 0.139 | 787.1
313.09 K, 7489 kPa, x2 = 0.139 | 787.6
313.09 K, 7960 kPa, x2 = 0.9492 | 642.1
313.09 K, 7998 kPa, x2 = 0.139 | 788.2
313.09 K, 8001 kPa, x2 = 0.9492 | 648.3
313.09 K, 8200 kPa, x2 = 0.9492 | 666.4
313.09 K, 8400 kPa, x2 = 0.9492 | 677.7
313.09 K, 8509 kPa, x2 = 0.139 | 788.8
313.09 K, 8606 kPa, x2 = 0.9492 | 688.5
313.09 K, 8803 kPa, x2 = 0.9492 | 697
313.09 K, 8995 kPa, x2 = 0.139 | 789.3
313.09 K, 9002 kPa, x2 = 0.9492 | 704
313.09 K, 9201 kPa, x2 = 0.9492 | 710.9
313.09 K, 9408 kPa, x2 = 0.9492 | 717.1
313.09 K, 9503 kPa, x2 = 0.139 | 789.8
313.09 K, 9604 kPa, x2 = 0.9492 | 722.7
313.09 K, 9800 kPa, x2 = 0.9492 | 728.1
313.09 K, 10003 kPa, x2 = 0.9492 | 733.1
313.09 K, 10201 kPa, x2 = 0.9492 | 737.5
313.09 K, 10405 kPa, x2 = 0.9492 | 741.5
313.09 K, 10605 kPa, x2 = 0.9492 | 744.7
313.09 K, 10803 kPa, x2 = 0.9492 | 747.4
313.1 K, 3601 kPa, x2 = 0.2003 | 786.8
313.1 K, 4007 kPa, x2 = 0.2003 | 787.4
313.1 K, 4523 kPa, x2 = 0.2003 | 788.1
313.1 K, 5069 kPa, x2 = 0.2003 | 788.7
313.1 K, 5497 kPa, x2 = 0.2003 | 789.3
313.1 K, 5812 kPa, x2 = 0.4248 | 801.4
313.1 K, 6012 kPa, x2 = 0.4248 | 801.7
313.1 K, 6027 kPa, x2 = 0.2003 | 790
313.1 K, 6200 kPa, x2 = 0.4248 | 802.1
313.1 K, 6395 kPa, x2 = 0.4248 | 802.6
313.1 K, 6504 kPa, x2 = 0.2003 | 790.7
313.1 K, 6602 kPa, x2 = 0.4248 | 803.1
313.1 K, 6803 kPa, x2 = 0.4248 | 803.5
313.1 K, 7010 kPa, x2 = 0.2003 | 791.3
313.1 K, 7055 kPa, x2 = 0.4248 | 804.1
313.1 K, 7208 kPa, x2 = 0.4248 | 804.3
313.1 K, 7409 kPa, x2 = 0.4248 | 804.8
313.1 K, 7494 kPa, x2 = 0.2003 | 791.9
313.1 K, 7611 kPa, x2 = 0.4248 | 805.2
313.1 K, 7802 kPa, x2 = 0.4248 | 805.7
313.1 K, 7989 kPa, x2 = 0.2003 | 792.6
313.1 K, 7998 kPa, x2 = 0.4248 | 806.1
313.1 K, 8201 kPa, x2 = 0.4248 | 806.5
313.1 K, 8557 kPa, x2 = 0.2003 | 793.2
313.1 K, 8597 kPa, x2 = 0.4248 | 807.3
313.1 K, 8797 kPa, x2 = 0.4248 | 807.6
313.1 K, 9017 kPa, x2 = 0.2003 | 793.8
